ChEMBL document CHEMBL3507680, “University of Dundee, Gates Library screen for HepG2 cell viability”

Test: Human HepG2 cell viability assay in 384 well format
Assay type: toxicity, cell-based
Set-up: dose 125 nL, time 70.5 hour; cytotoxicity at 70.5 h: concentration not given beside the values
Details: HepG2 cells, read-out: Inhibition

Row | SMILES | cytotoxicity at 70.5 h
1 | COc1cc(Cl)c(NC(=O)NCCn2cccc2)cc1OC | -4.58%
2 | N#Cc1cccc(N2CCCC(CO)(CCOc3ccccc3)C2)n1 (stereo unspecified) | 8.55%
3 | Cc1nonc1C(=O)N1CCCC(c2ncncc2-c2ccncc2)C1 (stereo unspecified) | -28.8%
4 | CSCC(=O)N1CCCC1c1noc(C2CC2)n1 (stereo unspecified) | -4.73%
5 | C[C@@H]1CN(C2(C(=O)N3CCNCC3)Cc3ccccc3C2)C[C@H](C)O1 | -2.17%
6 | Cc1cnc(C)c(N2CCCC(CO)(Cc3cccc(Cl)c3)C2)n1 (stereo unspecified) | 21.2%
7 | CCC(c1ccccc1)N1CCN(C(=O)c2cc(C(N)=O)c[nH]2)CC1 (stereo unspecified) | -4.98%
8 | CN1CCN(CC2CC2)C(=O)c2cnc(N3CCCCC3)nc21 | 30.2%
9 | Cn1cc(NC(=O)c2cccc3cccnc23)ccc1=O | -18.3%
10 | COc1cccc(-c2noc3c2CN(c2ncnc4c2CCC4)CC3)c1 | -6.28%
11 | COc1ccc(CNC[C@@]2(COc3cccnc3)C[C@@H](O)[C@@H](O)C2)cc1 | 10.2%
12 | CCCNC(=O)N1CCC(Oc2cc(C)ccc2F)(C(=O)O)CC1 | 10.3%
13 | Cc1cc(C[C@@H]2CCC[C@H]2NCc2ccc(C(F)(F)F)cc2)on1 | -2%
14 | COc1ncc(CN2CCC3(CCNC(=O)CC3)CC2)cn1 | 4.98%
15 | NC(=O)NC(=O)CCn1ccc(-c2ccc(F)cc2)n1 | -1.22%
16 | CCCN1CCCC2(CCN(c3nc(C)nc4ccsc34)C2)C1=O (stereo unspecified) | -3.49%
17 | CCN(Cc1ccc2c(c1)OCO2)C(=O)NC(C)Cn1cccn1 (stereo unspecified) | -12.9%
18 | COCCCN1Cc2cccc(NC(=O)c3cc(F)cc(F)c3)c2C1 | 4.56%
19 | CCC(CC)c1cc(CNC(=O)N2CCCC(C(=O)NC)C2)on1 (stereo unspecified) | -0.471%
20 | CNC(=O)c1nc(CN2CCOC(C(F)(F)F)C2)no1 (stereo unspecified) | 28.6%
21 | COc1nc2c(cc1C(=O)N(C)Cc1[nH]nc3c1CCC3)CCC2 | 27.9%

Row | SMILES | cytotoxicity at 70.5 h
22 | CC(Cn1cccn1)NCC(=O)NC1CCOCC1 (stereo unspecified) | 6.94%
23 | CN(C)C(=O)[C@@H]1C[C@@H]2CCN(Cc3ccncc3)C[C@@H]2O1 | -11.6%
24 | COc1cc(CN2CCCC2)ccc1Oc1ncccc1C(F)(F)F | 28.7%
25 | O=C(NCCCc1nnc2ccccn12)c1ccccc1C1CCNC1 (stereo unspecified) | -0.698%
26 | CC(C)OC[C@H]1CCC[C@]12CN(S(=O)(=O)c1cn(C)cn1)CCO2 | -4.1%
27 | NC(=O)c1csc(N2C[C@@H](CN3CCCCC3)[C@@H](CO)C2)n1 | -6.7%
28 | Cc1nn(C)cc1CN1C[C@@H]2CC[C@H](C1)N(Cc1c(C)noc1C)C2=O | 32.1%
29 | O=S(=O)(c1ccc(-c2cnco2)cc1)N1CCCC2(CCNCC2)CC1 | 0.207%
30 | Cc1nn(C)c(N2CCOCC2)c1CNCC1CCN(C2CC2)C1 (stereo unspecified) | 15.8%
31 | O=C(CNC(=O)c1c[nH]c2ccccc12)NCCCn1ccnc1 | -5.85%
32 | COc1cccc(CC(=O)NCc2cnc(C)nc2C2CCCN2C)c1 (stereo unspecified) | -6.33%
33 | CCS(=O)(=O)N1CCC(NC(=O)c2cc(C(C)C)ccc2O)CC1 | 1.02%
34 | CC(C)CNC(=O)CN1CCCC(c2ccc(C(=O)O)cc2)C1 (stereo unspecified) | -6.21%
35 | Cc1cc(CN2CCN(C(=O)NCCc3csc(C)n3)CC2)on1 | -11.6%
36 | O=C(NCc1cccc(N2CC=CC2)c1)NC1CC1 | -2.22%
37 | Cc1ccccc1NC(=O)N1CC[C@@H]2CN(C)S(=O)(=O)[C@@H]2CC1 | -8.26%
38 | Cc1n[nH]c(C2CN(C(=O)c3ccc4c(c3)CCCC4)CCO2)n1 (stereo unspecified) | 21%
39 | O=C(NCc1ccncc1)C1CN(c2nc3ccccc3s2)CCN1 (stereo unspecified) | -0.512%
40 | Cc1cc(C(=O)NCCN2CCCCCC2)nn1C(C)(C)C | -4.89%
41 | COC(=O)c1cccc(-c2nc(CC3CCN(C)CC3)no2)c1 | -3.78%
42 | Cc1n[nH]c(C)c1C1COCCN1C(=O)c1cccc(F)c1F (stereo unspecified) | -15.7%

Row | SMILES | cytotoxicity at 70.5 h
43 | O=C(NC1CC1)c1cc(NC(=O)N2CCOCC2)ccc1Cl | -15.3%
44 | CC(=O)N1CCC2(CC1)CC(Oc1ccccc1)CO2 (stereo unspecified) | -7.56%
45 | CCN1CCC(CC(=O)NCC(O)c2cccc(OC)c2)CC1 (stereo unspecified) | -6.22%
46 | CCN(Cc1ccoc1)C(=O)c1ccc(C)c(S(N)(=O)=O)c1 | -10.2%
47 | O=C(c1ccc(-n2cncn2)cc1)N1CCN(c2cnccn2)CC1 | -9.5%
48 | Cc1ccc(-c2nnc(CCC(=O)N3CCCC3c3ccc[nH]3)o2)cc1 (stereo unspecified) | -2%
49 | CCn1ncnc1C(C)NC(=O)C1CCN(Cc2ccco2)CC1 (stereo unspecified) | -0.537%
50 | N#CCCSc1nnc(Cc2ccccc2F)o1 | -3.12%
51 | O=C(O)C(c1ccc2c(c1)OCO2)N1CCCCCC1 (stereo unspecified) | -1.77%
52 | CCc1nc(CN(C)Cc2nnc(-c3cccs3)o2)cs1 | -3.41%
53 | Cc1ccc(C(NCC(=O)N2CCNC(=O)C2)c2ccccc2)cc1 (stereo unspecified) | -104%
54 | Cc1cccc(CN2CCC(c3nnsc3S(C)(=O)=O)CC2)c1 | -5.38%
55 | CCc1nnc(Nc2cc(C)nc(C3CN(C(=O)C(C)C)CCO3)c2)s1 (stereo unspecified) | 9.87%
56 | Cc1nn(C)cc1C(=O)NC(CC(C)C)C(=O)Nc1cc[nH]n1 (stereo unspecified) | 12.6%
57 | COc1ccnc(N2CCN(C(=O)Cc3ccn(C(C)C)n3)CC2)n1 | -5.11%
58 | Cc1ccccc1N1CCN(C(=O)c2cnn(C(C)C)c2)C(C)C1 (stereo unspecified) | -4.79%
59 | COc1ccc(CNC(C)Cn2cccn2)cc1F (stereo unspecified) | -1.59%
60 | COCCN(Cc1ccccc1)c1cc(C)ncn1 | -6.25%
61 | CCNC(=O)c1cn(C(C)(C)C)c2ncccc12 | -0.924%
62 | O=C1CC2(CCN(CC3CC3)C2)CN1c1cccnc1 (stereo unspecified) | -9.06%
63 | CC1(C)CC1(C(=O)N1CC(c2cccnc2)C1)c1ccccc1F (stereo unspecified) | -7.64%

Row | SMILES | cytotoxicity at 70.5 h
64 | CN(C)CCNc1cc(-c2ncccc2O)c2cc[nH]c2n1 | -7.75%
65 | CCc1nnc(Nc2cccc(C3CCN(C(C)=O)CC3)n2)s1 | 44.9%
66 | Cc1noc(C)c1CN1CCN(Cc2nccn2C)CC1 | -4.67%
67 | O=C(C1CCCO1)N1CCCC2(CCN(c3cccnc3)CC2)C1 (stereo unspecified) | -3.98%
68 | CC(C)n1ccnc1C1CCN(Cc2ccc(Cl)c(F)c2)CC1 | -5.05%
69 | O=C(N1CCOCC1)N1CCN(c2ccnc3ccsc23)CC1 | 39.2%
70 | Cc1ccc(N2CCc3sc(C(=O)N4CCOCC4)cc32)nn1 | 2.34%
71 | Cc1cc(CN2CCCC2)cc(Oc2ccc3c(c2)CC(CN)O3)c1 (stereo unspecified) | -11.7%
72 | CN1N=C(C(=O)N2CCCC(CCc3c(F)cccc3F)C2)CCC1=O (stereo unspecified) | -8.44%
73 | Cc1c(NC(=O)N(C)CCn2cnnc2)cccc1OC1CCCC1 | -4.56%
74 | O=C(c1cc[nH]n1)N1CCc2ncnc(NCc3ccccn3)c2CC1 | -8.31%
75 | Cn1cc(Cl)c(C(=O)N2CCCN(C3Cc4ccccc4C3)CC2)n1 | 47.8%
76 | O=C(O)CC1COCCN1C(=O)C1(c2ccc(Cl)cc2)CCC1 (stereo unspecified) | 5.66%
77 | CC(C)NC1CCc2c(ccc(=O)n2CCN2CCOCC2)C1 (stereo unspecified) | -6.6%
78 | Cc1cc(C(=O)Nc2ccc3c(ccn3CCN3CCOCC3)c2)on1 | -5.31%
79 | COc1cccc(-c2nc(CNCc3cccnc3)cs2)c1 | -17.2%
80 | O=C1NC(c2ccccc2)=N[C@@]12CC[C@@H]1CN(Cc3ccccc3)C[C@@H]12 | 0.309%
81 | Nc1nc(CN2CCCC2Cn2cncn2)nc2ccccc12 (stereo unspecified) | -2.37%
